test system: 53BP1 TTD; experiment: Histone peptide microarray, 53BP1 TTD; assay type: binding; conditions: 53BP1 TTD hits, average signal per peptide
In short: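 Binding of protein or antibody to arrayed histone peptides read by AlexaFluor 647 fluorescence, with anti-GST primary (1:2,000) and labelled secondary (1:5,000) for GST-fused domain. Hybridisations in HEPES pH 7.5 buffer with 100 mM NaCl, 0.5% BSA and 0.1% NP-40; triple PBS-Tween washes between steps.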

Going from “ARTK(Me2)QpTARK(Ac)STGGK(Ac)APRK(Ac)QL-K(Biot)-NH2 [H3.1K4me2T6pK9acK14acK18ac]” to “Ac-IAQDFK(Me3)TDLRF-Peg-K(Biot)-NH2 [Peptide H3.1K79me3]”, the “Avg Signal” value falls from 0.3467 to 0.03452.

Compared with “ARTK(Me3)QTARKSTGGKAPRK(Ac)QL-K(Biot)-NH2 [H3.1K4me3K18ac]”, “AR(Me2a)TK(Me3)QTARK(Ac)STGGK(Ac)APRK(Ac)QL-K(Biot)-NH2 [H3.1R2me2aK4me3K9acK14acK18ac]” is lower in “Avg Signal” value: 0.08895 for the first, 0.02297 for the second.

Compared with “ARTK(Me2)QpTARKSTGGKAPRKQL-K(Biot)-NH2 [Peptide H3.1K4me2T6p]”, “ARTK(N3)QTARKSTGGKAPRKQL-K(Biot)-NH2 [Peptide H3.1K4N3]” is lower in “Avg Signal” value: 0.2267 for the first, 0.07618 for the second.

Compared with “AR(Me2a)TKQTARKSTGGKAPRKQL-K(Biot)-NH2 [Peptide H3.1R2me2a]”, “ACitTK(Me3)QTARK(Ac)STGGK(Ac)APRK(Ac)QL-K(Biot)-NH2 [H3.1Cit2K4me3K9acK14acK18ac]” is higher in “Avg Signal” value: 0.05357 for the first, 0.1358 for the second.

“ARTK(Ac)QTARKSTGGKAPRK(Ac)QL-K(Biot)-NH2 [H3.1K4acK18ac]” was tested, and the “Avg Signal” value was 0.07704.

test system: Abcam #ab8895, anti-H3K4me1; experiment: Histone peptide microarray, Abcam ab8895; assay type: binding; conditions: Abcam ab8895 (anti-H3K4me1) hits, average signal per peptide

Going from “ARTK(Me2)QpTARK(Ac)STGGK(Ac)APRK(Ac)QL-K(Biot)-NH2 [H3.1K4me2T6pK9acK14acK18ac]” to “Ac-IAQDFK(Me3)TDLRF-Peg-K(Biot)-NH2 [Peptide H3.1K79me3]”, the “Avg Signal” value falls from 0.2093 to 0.06064.

Compared with “ARTK(Me3)QTARKSTGGKAPRK(Ac)QL-K(Biot)-NH2 [H3.1K4me3K18ac]”, “AR(Me2a)TK(Me3)QTARK(Ac)STGGK(Ac)APRK(Ac)QL-K(Biot)-NH2 [H3.1R2me2aK4me3K9acK14acK18ac]” is higher in “Avg Signal” value: 0.01446 for the first, 0.04451 for the second.

First: ARTK(Me2)QpTARKSTGGKAPRKQL-K(Biot)-NH2 [Peptide H3.1K4me2T6p]
Second: ARTK(N3)QTARKSTGGKAPRKQL-K(Biot)-NH2 [Peptide H3.1K4N3]
The “Avg Signal” value of the first is higher: 0.1917 for the first, 0.03034 for the second.

First: AR(Me2a)TKQTARKSTGGKAPRKQL-K(Biot)-NH2 [Peptide H3.1R2me2a]
Second: ARTK(Ac)QTARKSTGGKAPRK(Ac)QL-K(Biot)-NH2 [H3.1K4acK18ac]
The “Avg Signal” value of the first is higher: 0.1119 for the first, 0.002862 for the second.

test system: ABClonal #A2355, anti-H3K4me1; experiment: Histone peptide microarray, ABclonal A2355; assay type: binding; conditions: Abclonal A2355 (anti-H3K4me1) hits
Method: (§1) Peptide microarrays were fabricated using an Aushon 2470 microarrayer and used as described ([Cornett et al., 2017]) with the following modifications. Protein and antibody hybridization steps were performed in buffer containing 25 mM HEPES pH 7.5, 100 mM NaCl, 0.5% BSA (w/v), and 0.1% NP-40. Slides were washed 3 × 5 min in PBS supplemented with 0.1% Tween-20 between each hybridization step. Antibodies used were primary anti-GST (Sigma #7781, 1:2,000 dilution) and an AlexaFluor 647-labeled secondary antibody (Life Technologies A-21245, 1:5,000 dilution). […] Full lists of peptides queried by array analysis are in Supplementary Table S2.

Going from “ARTK(Me2)QpTARK(Ac)STGGK(Ac)APRK(Ac)QL-K(Biot)-NH2 [H3.1K4me2T6pK9acK14acK18ac]” to “Ac-IAQDFK(Me3)TDLRF-Peg-K(Biot)-NH2 [Peptide H3.1K79me3]”, the “Avg Signal” value falls from 0.3869 to 0.03778.

Compared with “ARTK(Me3)QTARKSTGGKAPRK(Ac)QL-K(Biot)-NH2 [H3.1K4me3K18ac]”, “AR(Me2a)TK(Me3)QTARK(Ac)STGGK(Ac)APRK(Ac)QL-K(Biot)-NH2 [H3.1R2me2aK4me3K9acK14acK18ac]” is higher in “Avg Signal” value: 0.001684 for the first, 0.01872 for the second.

Compared with “ARTK(Me2)QpTARKSTGGKAPRKQL-K(Biot)-NH2 [Peptide H3.1K4me2T6p]”, “ARTK(N3)QTARKSTGGKAPRKQL-K(Biot)-NH2 [Peptide H3.1K4N3]” is lower in “Avg Signal” value: 0.3499 for the first, 0.03523 for the second.

Compared with “AR(Me2a)TKQTARKSTGGKAPRKQL-K(Biot)-NH2 [Peptide H3.1R2me2a]”, “ACitTK(Me3)QTARK(Ac)STGGK(Ac)APRK(Ac)QL-K(Biot)-NH2 [H3.1Cit2K4me3K9acK14acK18ac]” is lower in “Avg Signal” value: 0.0139 for the first, 0.0002223 for the second.

For “ARTK(Ac)QTARKSTGGKAPRK(Ac)QL-K(Biot)-NH2 [H3.1K4acK18ac]”, the “Avg Signal” value was 0.001249.

test system: CST 9733 (anti-H3K27me3); experiment: Histone peptide microarray, CST 9733; assay type: binding; conditions: histone peptide array signal normalized to the highest peptide average per subarray, hits; CST 9733 LOT:14 dilution 1:5,000
Method: as §1

Compared with “ARTK(Me2)QpTARK(Ac)STGGK(Ac)APRK(Ac)QL-K(Biot)-NH2 [H3.1K4me2T6pK9acK14acK18ac]”, “ARTK(Me3)QTARKSTGGKAPRK(Ac)QL-K(Biot)-NH2 [H3.1K4me3K18ac]” is higher in “Avg Signal” value: 0.0006457 for the first, 0.006885 for the second.

Compared with “AR(Me2a)TK(Me3)QTARK(Ac)STGGK(Ac)APRK(Ac)QL-K(Biot)-NH2 [H3.1R2me2aK4me3K9acK14acK18ac]”, “ARTK(Me2)QpTARKSTGGKAPRKQL-K(Biot)-NH2 [Peptide H3.1K4me2T6p]” is lower in “Avg Signal” value: 0.007631 for the first, 0.0001379 for the second.

For “ACitTK(Me3)QTARK(Ac)STGGK(Ac)APRK(Ac)QL-K(Biot)-NH2 [H3.1Cit2K4me3K9acK14acK18ac]”, the “Avg Signal” value was 0.00661.

test system: Active Motif #39161, anti-H3K9me3; experiment: Histone peptide microarray, Active Motif 39161; assay type: binding; conditions: Active Motif 39161 (anti-H3K9me3) hits

First: ARTK(Me3)QTARKSTGGKAPRK(Ac)QL-K(Biot)-NH2 [H3.1K4me3K18ac]
Second: AR(Me2a)TK(Me3)QTARK(Ac)STGGK(Ac)APRK(Ac)QL-K(Biot)-NH2 [H3.1R2me2aK4me3K9acK14acK18ac]
The “Avg Signal” value of the first is higher: 0.09175 for the first, 0.01091 for the second.

Going from “ARTK(Me2)QpTARKSTGGKAPRKQL-K(Biot)-NH2 [Peptide H3.1K4me2T6p]” to “AR(Me2a)TKQTARKSTGGKAPRKQL-K(Biot)-NH2 [Peptide H3.1R2me2a]”, the “Avg Signal” value rises from 0.000965 to 0.00368.

First: ACitTK(Me3)QTARK(Ac)STGGK(Ac)APRK(Ac)QL-K(Biot)-NH2 [H3.1Cit2K4me3K9acK14acK18ac]
Second: ARTK(Ac)QTARKSTGGKAPRK(Ac)QL-K(Biot)-NH2 [H3.1K4acK18ac]
The “Avg Signal” value of the first is higher: 0.03654 for the first, 0.0001961 for the second.

test system: Millipore #07-449, anti-H3K27me3; experiment: Histone peptide microarray, Millipore 07-449; assay type: binding; conditions: Millipore 07-449 (anti-H3K27me3) hits, average signal per peptide

Compared with “ARTK(Me3)QTARKSTGGKAPRK(Ac)QL-K(Biot)-NH2 [H3.1K4me3K18ac]”, “AR(Me2a)TK(Me3)QTARK(Ac)STGGK(Ac)APRK(Ac)QL-K(Biot)-NH2 [H3.1R2me2aK4me3K9acK14acK18ac]” is lower in “Avg Signal” value: 0.03479 for the first, 0.02578 for the second.

First: AR(Me2a)TKQTARKSTGGKAPRKQL-K(Biot)-NH2 [Peptide H3.1R2me2a]
Second: ACitTK(Me3)QTARK(Ac)STGGK(Ac)APRK(Ac)QL-K(Biot)-NH2 [H3.1Cit2K4me3K9acK14acK18ac]
The “Avg Signal” value of the first is lower: 0.004979 for the first, 0.0318 for the second.

Reference: paper PMC7160673, “A Degenerate Peptide Library Approach to Reveal Sequence Determinants of Methyllysine-Driven Protein Interactions” (Frontiers in Cell and Developmental Biology, 2020)
